Reference: article PMC7287781 (Molecules, 2020)

Assays:
Flt-1 = target: T1, Flt-1 (Homo sapiens, UniProt P17948); assay: ELISA tyrosine kinase activity assay, single concentration; type: biochemical; details: read-out: Inhibition Rate(%) / Flt-1
T1 construct: gene FLT1; purified tyrosine kinase protein

PDGFR-β = target: T2, PDGFR-β (Homo sapiens, UniProt P09619); assay: as above; type: biochemical; details: read-out: Inhibition Rate(%) / PDGFR-β
T2 construct: gene PDGFRB; purified tyrosine kinase protein

PDGFR-α = target: T3, PDGFR-α (Homo sapiens, UniProt P16234); assay: as above; type: biochemical; details: read-out: Inhibition Rate(%) / PDGFR-α
T3 construct: gene PDGFRA; purified tyrosine kinase protein

STAT3 = target: T4, STAT3 (Homo sapiens, UniProt P40763); assay: fluorescence polarization competition with 5-carboxyfluorescein-GpYLPQTV-NH2; […], […], […] inhibition at […]; type: binding
T4 construct: STAT3 protein (ab43618, Abcam)
T4 sequence (P40763 2-770): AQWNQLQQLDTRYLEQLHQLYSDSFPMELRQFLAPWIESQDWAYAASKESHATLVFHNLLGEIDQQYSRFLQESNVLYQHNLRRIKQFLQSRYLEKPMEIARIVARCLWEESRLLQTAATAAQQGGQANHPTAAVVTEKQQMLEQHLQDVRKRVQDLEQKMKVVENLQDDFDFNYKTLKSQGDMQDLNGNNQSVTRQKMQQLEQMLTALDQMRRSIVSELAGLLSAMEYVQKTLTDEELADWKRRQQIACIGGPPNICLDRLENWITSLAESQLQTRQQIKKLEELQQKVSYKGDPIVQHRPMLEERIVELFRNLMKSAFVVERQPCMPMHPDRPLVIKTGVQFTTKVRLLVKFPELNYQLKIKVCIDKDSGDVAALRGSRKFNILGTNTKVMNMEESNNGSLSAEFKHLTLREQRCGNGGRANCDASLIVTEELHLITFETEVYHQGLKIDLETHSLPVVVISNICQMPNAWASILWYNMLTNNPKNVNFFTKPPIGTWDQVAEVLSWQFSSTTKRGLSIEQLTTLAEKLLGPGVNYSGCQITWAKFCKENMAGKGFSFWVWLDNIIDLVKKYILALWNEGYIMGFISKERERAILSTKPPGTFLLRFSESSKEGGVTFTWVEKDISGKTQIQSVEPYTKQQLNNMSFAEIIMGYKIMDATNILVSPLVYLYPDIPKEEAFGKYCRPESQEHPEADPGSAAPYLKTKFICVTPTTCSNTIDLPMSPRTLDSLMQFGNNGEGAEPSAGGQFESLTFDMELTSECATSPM

T2 sequence (P09619 33-1106): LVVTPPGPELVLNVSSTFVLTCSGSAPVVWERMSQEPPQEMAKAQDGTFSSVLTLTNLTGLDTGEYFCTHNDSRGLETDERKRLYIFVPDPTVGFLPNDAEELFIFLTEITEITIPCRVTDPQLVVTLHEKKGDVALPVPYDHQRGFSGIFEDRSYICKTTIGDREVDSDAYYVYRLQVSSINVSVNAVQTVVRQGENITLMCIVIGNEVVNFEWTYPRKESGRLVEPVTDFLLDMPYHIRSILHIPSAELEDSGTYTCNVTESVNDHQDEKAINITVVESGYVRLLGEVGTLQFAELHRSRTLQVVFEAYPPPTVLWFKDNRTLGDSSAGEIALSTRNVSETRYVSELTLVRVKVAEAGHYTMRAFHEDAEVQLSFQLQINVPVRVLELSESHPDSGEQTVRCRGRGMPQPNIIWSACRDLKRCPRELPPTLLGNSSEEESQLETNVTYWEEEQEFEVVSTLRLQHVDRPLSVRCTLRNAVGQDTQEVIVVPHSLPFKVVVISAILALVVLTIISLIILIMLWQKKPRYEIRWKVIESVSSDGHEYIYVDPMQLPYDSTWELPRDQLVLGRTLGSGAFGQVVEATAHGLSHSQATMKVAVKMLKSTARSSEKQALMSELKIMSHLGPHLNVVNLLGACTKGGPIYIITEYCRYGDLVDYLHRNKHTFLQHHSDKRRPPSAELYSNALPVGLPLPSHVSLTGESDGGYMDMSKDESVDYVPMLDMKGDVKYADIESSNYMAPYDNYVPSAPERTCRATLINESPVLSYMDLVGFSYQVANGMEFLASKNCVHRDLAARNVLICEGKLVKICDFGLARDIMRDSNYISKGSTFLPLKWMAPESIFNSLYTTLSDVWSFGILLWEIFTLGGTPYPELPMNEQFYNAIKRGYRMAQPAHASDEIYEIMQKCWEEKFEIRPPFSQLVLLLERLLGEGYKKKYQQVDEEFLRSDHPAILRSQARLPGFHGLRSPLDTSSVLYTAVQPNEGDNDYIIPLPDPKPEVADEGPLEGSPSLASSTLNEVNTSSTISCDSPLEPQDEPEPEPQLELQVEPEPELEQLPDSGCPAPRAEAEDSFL
T1 sequence (P17948 27-1338): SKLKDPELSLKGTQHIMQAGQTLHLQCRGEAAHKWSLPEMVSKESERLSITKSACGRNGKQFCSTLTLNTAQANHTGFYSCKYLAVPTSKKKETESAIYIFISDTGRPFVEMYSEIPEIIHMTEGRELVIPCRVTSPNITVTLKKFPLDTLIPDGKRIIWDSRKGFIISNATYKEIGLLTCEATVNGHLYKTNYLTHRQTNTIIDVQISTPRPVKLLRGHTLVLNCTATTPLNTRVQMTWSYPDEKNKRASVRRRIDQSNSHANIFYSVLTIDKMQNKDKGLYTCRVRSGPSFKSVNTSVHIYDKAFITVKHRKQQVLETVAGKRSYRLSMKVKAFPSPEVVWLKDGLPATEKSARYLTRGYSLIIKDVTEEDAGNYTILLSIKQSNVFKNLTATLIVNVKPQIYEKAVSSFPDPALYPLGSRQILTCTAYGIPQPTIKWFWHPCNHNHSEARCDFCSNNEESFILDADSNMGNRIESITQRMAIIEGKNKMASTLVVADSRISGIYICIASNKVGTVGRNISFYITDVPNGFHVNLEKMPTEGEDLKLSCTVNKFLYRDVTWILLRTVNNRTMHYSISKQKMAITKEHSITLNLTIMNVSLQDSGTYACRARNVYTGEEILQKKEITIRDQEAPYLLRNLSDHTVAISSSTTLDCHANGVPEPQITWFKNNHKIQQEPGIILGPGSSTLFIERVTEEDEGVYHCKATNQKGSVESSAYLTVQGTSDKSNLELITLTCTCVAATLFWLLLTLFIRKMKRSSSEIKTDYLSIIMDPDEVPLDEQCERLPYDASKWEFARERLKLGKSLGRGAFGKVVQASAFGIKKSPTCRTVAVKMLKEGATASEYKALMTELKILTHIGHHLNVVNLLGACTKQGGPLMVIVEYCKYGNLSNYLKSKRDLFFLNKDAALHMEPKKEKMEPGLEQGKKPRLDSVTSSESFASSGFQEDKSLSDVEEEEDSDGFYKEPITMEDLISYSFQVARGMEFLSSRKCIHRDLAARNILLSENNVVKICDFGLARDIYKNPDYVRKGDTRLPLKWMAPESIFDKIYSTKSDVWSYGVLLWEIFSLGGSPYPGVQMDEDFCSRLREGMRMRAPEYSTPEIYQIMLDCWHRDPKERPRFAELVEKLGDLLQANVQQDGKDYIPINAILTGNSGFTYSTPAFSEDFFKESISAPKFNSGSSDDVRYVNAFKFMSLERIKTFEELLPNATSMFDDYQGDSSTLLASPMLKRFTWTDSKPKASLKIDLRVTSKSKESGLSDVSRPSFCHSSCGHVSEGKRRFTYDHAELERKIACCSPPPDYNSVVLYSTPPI
T3 sequence (P16234 24-1089): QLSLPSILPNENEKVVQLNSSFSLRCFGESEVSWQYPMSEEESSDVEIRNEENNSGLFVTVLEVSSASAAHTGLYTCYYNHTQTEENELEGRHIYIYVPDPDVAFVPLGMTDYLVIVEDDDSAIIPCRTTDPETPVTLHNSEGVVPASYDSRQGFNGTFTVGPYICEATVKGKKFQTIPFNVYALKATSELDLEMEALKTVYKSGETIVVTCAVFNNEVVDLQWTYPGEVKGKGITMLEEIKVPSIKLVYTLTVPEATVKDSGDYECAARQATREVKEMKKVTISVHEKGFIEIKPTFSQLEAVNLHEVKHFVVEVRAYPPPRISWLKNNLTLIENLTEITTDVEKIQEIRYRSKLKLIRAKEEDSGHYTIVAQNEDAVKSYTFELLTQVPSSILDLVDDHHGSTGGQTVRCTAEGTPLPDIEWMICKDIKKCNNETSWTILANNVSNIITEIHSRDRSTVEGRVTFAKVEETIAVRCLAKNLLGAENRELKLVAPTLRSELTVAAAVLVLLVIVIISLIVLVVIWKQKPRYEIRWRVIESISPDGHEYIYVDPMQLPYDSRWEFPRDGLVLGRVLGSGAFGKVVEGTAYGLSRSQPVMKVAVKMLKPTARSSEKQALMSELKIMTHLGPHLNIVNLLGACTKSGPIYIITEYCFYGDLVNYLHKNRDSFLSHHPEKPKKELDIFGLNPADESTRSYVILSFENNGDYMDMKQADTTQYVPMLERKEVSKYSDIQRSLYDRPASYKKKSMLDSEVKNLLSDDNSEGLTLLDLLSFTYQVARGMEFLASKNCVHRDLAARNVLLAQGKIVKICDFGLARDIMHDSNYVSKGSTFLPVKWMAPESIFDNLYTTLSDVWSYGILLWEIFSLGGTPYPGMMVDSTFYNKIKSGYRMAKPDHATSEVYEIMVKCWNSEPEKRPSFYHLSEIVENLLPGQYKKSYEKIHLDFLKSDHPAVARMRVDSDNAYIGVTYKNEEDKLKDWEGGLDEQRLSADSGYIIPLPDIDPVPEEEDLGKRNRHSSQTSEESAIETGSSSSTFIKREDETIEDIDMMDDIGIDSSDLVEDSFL

SMILES | inhibition at 1 µM (Flt-1) | inhibition at 1 µM (PDGFR-β) | inhibition at 1 µM (PDGFR-α) | % inhibition at 2 μM (STAT3)
CCN(CC)CCNC(=O)c1c(C)[nH]c(/C=C2\C(=O)Nc3ccc(F)cc32)c1C [Su11248] | 66.6% | 80.2% | 68.4% | –
C/C=C\C(=O)O[C@@H]1C[C@H]2O[C@@H]3C=C(C)C(=O)C[C@]3(C)[C@]1(C)[C@]21CO1 [TCN, trichothecin] | – | – | – | 53.9
